Consider four compounds from ChEMBL document CHEMBL1157402, “Solid-phase total synthesis of cyclic decapeptide phakellistatin 12” (2008).

Molecules are shown by their SMILES. Values after ≈ are worked out from the molar mass of the structure shown. Peptide text beside a SMILES is read from it.

The test deals with P388. The experiment in a line: Anticancer activity against mouse P388 cells. It is filed as functional. Conditions: read-out: ED50 (the source's name).
For `CC[C@H](C)[C@@H]1NC(=O)[C@@H]2CCCN2C(=O)[C@@H]2CCCN2C(=O)[C@H]([C@@H](C)CC)NC(=O)[C@H](Cc2ccc(O)cc2)NC(=O)[C@@H]2CCCN2C(=O)[C@@H]2CCCN2C(=O)[C@H](CC(C)C)NC(=O)[C@H]([C@@H](C)O)NC(=O)[C@H](Cc2ccccc2)NC1=O` [PHAKELLISTATIN 12] (cyclo(FTLPPYIPPI)), the EC50 amounted to 2.8 µg/mL (≈ 2.46 µM). `CC[C@H](C)[C@@H]1NC(=O)[C@@H]2CCCN2C(=O)[C@H](Cc2ccccc2)NC(=O)[C@@H]2CCCN2C(=O)[C@H](Cc2ccc(O)cc2)NC(=O)[C@@H]2CCCN2C(=O)[C@H]([C@@H](C)CC)NC1=O` [PHAKELLISTATIN 2] (cyclo(FPIIPYP)): the EC50 turned out to be 0.34 µg/mL (≈ 0.411 µM).

As for `CC[C@H](C)[C@@H]1NC(=O)[C@H](C)NC(=O)[C@H](CCSC)NC(=O)[C@H](C)NC(=O)[C@H](CC(N)=O)NC(=O)[C@H](Cc2ccccc2)NC(=O)[C@@H]2CCCN2C1=O` [PHAKELLI STATIN 5] (cyclo(AIPFNAM)), the EC50 turned out to be 0.23 µg/mL (≈ 0.309 µM). Take `CC[C@H](C)[C@@H]1NC(=O)[C@H](Cc2ccccc2)NC(=O)[C@@H]2CCCN2C(=O)[C@H](Cc2ccccc2)NC(=O)[C@@H]2CCCN2C(=O)[C@H](CCC(N)=O)NC(=O)[C@@H]2CCCN2C(=O)[C@H](Cc2ccccc2)NC1=O` [PHAKELLI STATIN 11] (cyclo(FIFPQPFP)): the EC50 came to 0.2 µg/mL (≈ 0.205 µM).
